Source: ChEMBL document CHEMBL5352429, “Designed symmetrical β-hairpin peptides for treating multidrug-resistant salmonella typhimurium infections” (Eur J Med Chem, 2022)
In brackets after ≈: the same amount, converted by molar mass. Activity calls are given as the source filed them. No cut-off for these calls is given here. Peptide text beside a SMILES is read from it.

Columns and labels:
[1] = test system: Staphylococcus aureus; assay: Antibacterial activity against Staphylococcus aureus ATCC 29213 incubated overnight by standard microtiter dilution method; type: functional
[2] = test system: Staphylococcus aureus; assay: Antibacterial activity against methicillin-resistant Staphylococcus aureus ATCC 43300 incubated overnight by standard microtiter dilution method; type: functional
[3] = test system: Staphylococcus epidermidis; assay: Antibacterial activity against methicillin-resistant Staphylococcus epidermidis ATCC 12228 incubated overnight by standard microtiter dilution method; type: functional
[4] = test system: Enterococcus faecalis; assay: Antibacterial activity against Enterococcus faecalis ATCC 29212 incubated overnight by standard microtiter dilution method; type: functional
[5] = test system: Escherichia coli; assay: Antibacterial activity against Escherichia coli O157:H7 CICC 21530 incubated overnight by standard microtiter dilution method; type: functional
[6] = test system: Salmonella paratyphi; assay: Antibacterial activity against Salmonella paratyphi A CICC 21501 incubated overnight by standard microtiter dilution method; type: functional, Salmonella enterica subsp. enterica serovar Paratyphi A; details: Salmonella enterica
[7] = test system: Salmonella enterica subsp. enterica serovar Paratyphi B; assay: Antibacterial activity against Salmonella paratyphi B CICC 21495 incubated overnight by standard microtiter dilution method; type: functional
[8] = Antibacterial activity against Salmonella paratyphi C CICC 21512 incubated overnight by standard microtiter dilution method; type: functional, Salmonella enterica subsp. enterica serovar Paratyphi C; details: Salmonella enterica
[9] = Antibacterial activity against Salmonella enterica subsp. enterica serovar Choleraesuis ATCC 13312 incubated overnight by standard microtiter dilution method; type: functional
[10] = Antibacterial activity against Salmonella enterica subsp. enterica serovar Choleraesuis CICC 21493 incubated overnight by standard microtiter dilution method; type: functional
[11] = test system: Salmonella enteritidis; assay: Antibacterial activity against Salmonella enteritidis CICC 21527 incubated overnight by standard microtiter dilution method; type: functional, Salmonella enterica subsp. enterica serovar Enteritidis; details: Salmonella enterica
[12] = Antibacterial activity against Salmonella wandsworth CICC 21504 incubated overnight by standard microtiter dilution method; type: functional, Salmonella enterica subsp. enterica serovar Wandsworth; details: Salmonella enterica
[13] = test system: Salmonella typhimurium; assay: Antibacterial activity against Salmonella typhimurium CICC 21483 incubated overnight by standard microtiter dilution method; type: functional, Salmonella enterica subsp. enterica serovar Typhimurium; details: Salmonella enterica
[14] = test system: Salmonella typhimurium; assay: Antibacterial activity against Salmonella typhimurium CICC 21913 incubated overnight by standard microtiter dilution method; type: functional, Salmonella enterica subsp. enterica serovar Typhimurium; details: Salmonella enterica
[15] = Antibacterial activity against Salmonella blockley CICC 21489 incubated overnight by standard microtiter dilution method; type: functional, Salmonella enterica subsp. enterica serovar Blockley; details: Salmonella enterica
[16] = Antibacterial activity against Salmonella dublin CICC 21497 incubated overnight by standard microtiter dilution method; type: functional, Salmonella enterica subsp. enterica serovar Dublin; details: Salmonella enterica
[17] = test system: Salmonella typhimurium; assay: Antibacterial activity against Salmonella typhimurium DT104 ATCC 700408 incubated overnight by standard microtiter dilution method; type: functional, Salmonella enterica subsp. enterica serovar Typhimurium; details: Salmonella enterica
[18] = test system: Candida albicans; assay: Antifungal activity against Candida albicans ATCC 10231 incubated overnight by standard microtiter dilution method; type: functional
[19] = test system: Erythrocyte; assay: Hemolytic activity in human Red blood cells assessed as hemolysis incubated for 1 hrs by absorbance based microplate reader analysis; type: toxicity, cell-based
[20] = test system: Salmonella typhimurium; assay: Antibacterial activity against Salmonella typhimurium DT104 in the presence of NaCl by MH broth based assay; type: functional, Salmonella enterica subsp. enterica serovar Typhimurium; details: Salmonella enterica
[21] = test system: Salmonella typhimurium; assay: Antibacterial activity against Salmonella typhimurium DT104 in the presence of KCl by MH broth based assay; type: functional, Salmonella enterica subsp. enterica serovar Typhimurium; details: Salmonella enterica
[22] = test system: Salmonella typhimurium; assay: Antibacterial activity against Salmonella typhimurium DT104 in the presence of NH4Cl by MH broth based assay; type: functional, Salmonella enterica subsp. enterica serovar Typhimurium; details: Salmonella enterica
[23] = test system: Salmonella typhimurium; assay: Antibacterial activity against Salmonella typhimurium DT104 in the presence of CaCl2 by MH broth based assay; type: functional, Salmonella enterica subsp. enterica serovar Typhimurium; details: Salmonella enterica
[24] = test system: Salmonella typhimurium; assay: Antibacterial activity against Salmonella typhimurium DT104 in the presence of MgCl2 by MH broth based assay; type: functional, Salmonella enterica subsp. enterica serovar Typhimurium; details: Salmonella enterica
[25] = test system: Salmonella typhimurium; assay: Antibacterial activity against Salmonella typhimurium DT104 in the presence of FeCl3 by MH broth based assay; type: functional, Salmonella enterica subsp. enterica serovar Typhimurium; details: Salmonella enterica
[26] = test system: Salmonella typhimurium; assay: Antibacterial activity against Salmonella typhimurium DT104 in the presence 25% inactivated mouse serum by MH broth based assay; type: functional, Salmonella enterica subsp. enterica serovar Typhimurium; details: Salmonella enterica
[27] = test system: Salmonella typhimurium; assay: Antibacterial activity against Salmonella typhimurium DT104 in the presence 50% inactivated mouse serum by MH broth based assay; type: functional, Salmonella enterica subsp. enterica serovar Typhimurium; details: Salmonella enterica
[28] = Hemolytic activity in human Red blood cells assessed as hemolysis at 128 ug/ml incubated for 1 hrs by absorbance based microplate reader analysis relative to control; type: toxicity, cell-based, Erythrocyte; details: red blood cells (erythrocytes), at 128 µg/mL, read-out: Activity
[29] = Cytotoxicity against mouse RAW264.7 cells assessed as cell viability at 128 ug/ml incubated for 24 hrs by MTT assay; type: toxicity, cell-based; details: at 128 µg/mL, read-out: Activity
[30] = test system: Salmonella typhimurium; assay: Antibacterial activity against multi-drug resistant Salmonella typhimurium DT104 assessed as inhibition of bacterial growth at 0.5 to 2 times of MIC by MH agar based serial dilution method; type: functional, organism-based; details: Salmonella enterica subsp. enterica serovar Typhimurium, time <= 120.0 min, TDE = time-dependent effect
[31] = test system: Salmonella typhimurium; assay: Antibacterial activity against multi-drug resistant Salmonella typhimurium DT104 assessed as inhibition of bacterial growth measured upto 120 mins by MH agar based serial dilution method; type: functional, organism-based; details: Salmonella enterica subsp. enterica serovar Typhimurium
[32] = test system: Lipopolysaccharide (LPS); assay: Displacement of BODIPY-TR-cadaverine from Salmonella typhimurium LPS assessed as increase in fluorescence intensity by fluorescence spectrophotometric analysis; details: Salmonella enterica subsp. enterica serovar Typhimurium; dose 0.25-8 µg/ml
[33] = test system: RAW264.7; assay: Inhibition of LPS-stimulated NO production in mouse RAW264.7 cells incubated for 24 hrs by Griess reagent based analysis; type: functional, cell-based; details: dose 1-128 µg/ml
[34] = test system: RAW264.7; assay: Inhibition of LPS-stimulated TNF-alpha production in mouse RAW264.7 cells at 1 to 128 ug/ml incubated for 24 hrs by ELISA analysis; type: functional, cell-based; details: dose 1-128 µg/ml
[35] = test system: RAW264.7; assay: Inhibition of LPS-stimulated IL-1beta production in mouse RAW264.7 cells at 1 to 128 ug/ml incubated for 24 hrs by ELISA analysis; type: functional, cell-based; details: dose 1-128 µg/ml
[36] = test system: RAW264.7; assay: Inhibition of LPS-stimulated IL-8 production in mouse RAW264.7 cells at 1 to 128 ug/ml incubated for 24 hrs by ELISA analysis; type: functional, cell-based; details: dose 1-128 µg/ml
[37] = test system: Cell membrane; assay: Disruption of membrane integrity in Salmonella typhimurium DT104 assessed as increase in fluorescence intensity at 0.5 to 2 times of MIC incubated for 15 mins by PI staining based flow cytometric analysis; type: subcellular; details: Salmonella enterica subsp. enterica serovar Typhimurium
[38] = test system: Salmonella typhimurium; assay: Antibacterial activity against Salmonella typhimurium DT104 infected in mouse RAW264.7 cells assessed as reduction in bacterial cells at 1 times of MIC measured for 180 mins by MH agar based serial dilution method; type: functional, organism-based; details: Salmonella enterica subsp. enterica serovar Typhimurium

| Structure (SMILES) | MIC [1] | MIC [2] | MIC [3] | MIC [4] | MIC [5] | MIC [6] | MIC [7] | MIC [8] | MIC [9] | MIC [10] | MIC [11] | MIC [12] | MIC [13] | MIC [14] | MIC [15] | MIC [16] | MIC [17] | MIC [18] | further results |
| --- | --- | --- | --- | --- | --- | --- | --- | --- | --- | --- | --- | --- | --- | --- | --- | --- | --- | --- | --- |
| C[C@@H](O)[C@H](NC(=O)[C@H](CS)NC(=O)[C@H](CCCCN)NC(=O)[C@H](Cc1c[nH]c2ccccc12)NC(=O)[C@H](CCCCN)NC(=O)[C@H](Cc1c[nH]c2ccccc12)NC(=O)[C@H](CCCCN)NC(=O)[C@@H](N)Cc1c[nH]c2ccccc12)C(=O)N[C@@H](CCCCN)C(=O)N[C@@H](CO)C(=O)NCC(=O)N[C@@H](CS)C(=O)N[C@@H](CCCCN)C(=O)N[C@@H](Cc1c[nH]c2ccccc12)C(=O)N[C@@H](CCCCN)C(=O)N[C@@H](Cc1c[nH]c2ccccc12)C(=O)N[C@@H](CCCCN)C(=O)N[C@@H](Cc1c[nH]c2ccccc12)C(N)=O (H-WKWKWKCTKSGCKWKWKW-NH2) | 4 µg/mL (≈ 1.61 µM) | 4 µg/mL (≈ 1.61 µM) | 4 µg/mL (≈ 1.61 µM) | 2 µg/mL (≈ 0.805 µM) | 4 µg/mL (≈ 1.61 µM) | 4 µg/mL (≈ 1.61 µM) | 1 µg/mL (≈ 0.403 µM) | 4 µg/mL (≈ 1.61 µM) | 0.5 µg/mL (≈ 0.201 µM) | 16 µg/mL (≈ 6.44 µM) | 16 µg/mL (≈ 6.44 µM) | 4 µg/mL (≈ 1.61 µM) | 32 µg/mL (≈ 12.9 µM) | 4 µg/mL (≈ 1.61 µM) | > 128 µg/mL | 8 µg/mL (≈ 3.22 µM) | 32 µg/mL (≈ 12.9 µM) | 32 µg/mL (≈ 12.9 µM) | MHC [19]: 32 µg/mL; MIC [20]: > 128 µg/mL; MIC [21]: > 128 µg/mL; MIC [22]: > 128 µg/mL; MIC [23]: > 128 µg/mL; MIC [24]: > 128 µg/mL; MIC [25]: > 128 µg/mL; MIC [26]: 64 µg/mL (≈ 25.8 µM); MIC [27]: 128 µg/mL (≈ 51.5 µM); hemolysis at 1 h, 128 ug/ml [28]: 30.8%; viability at 24 h, 128 ug/ml [29]: 36.6%; Activity [30]: Tde; Activity [31]: Dose-Dependent Effect; Activity [32]: Dose-Dependent Effect; inhibition [33]: Dose-Dependent Effect; inhibition [34]: Active; inhibition [35]: Active; inhibition [36]: Active; Activity [37]: Active |
| CN[C@@H]1[C@H](O[C@H]2[C@H](O[C@H]3[C@H](O)[C@@H](O)[C@H](N=C(N)N)[C@@H](O)[C@@H]3N=C(N)N)O[C@@H](C)[C@]2(O)C=O)O[C@@H](CO)[C@H](O)[C@H]1O [STREPTOMYCIN] | 4 µg/mL (≈ 6.88 µM) | 8 µg/mL (≈ 13.8 µM) | 0.25 µg/mL (≈ 0.43 µM) | 64 µg/mL (≈ 110 µM) | 64 µg/mL (≈ 110 µM) | 32 µg/mL (≈ 55 µM) | 32 µg/mL (≈ 55 µM) | 64 µg/mL (≈ 110 µM) | 64 µg/mL (≈ 110 µM) | 32 µg/mL (≈ 55 µM) | 16 µg/mL (≈ 27.5 µM) | 2 µg/mL (≈ 3.44 µM) | 32 µg/mL (≈ 55 µM) | 64 µg/mL (≈ 110 µM) | > 128 µg/mL | 128 µg/mL (≈ 220 µM) | 128 µg/mL (≈ 220 µM) | 128 µg/mL (≈ 220 µM) | Activity [38]: Active |
